From patent US6534524B1, “Indazole compounds and pharmaceutical compositions for inhibiting protein kinases, and methods for their use” (Agouron Pharmaceuticals, Inc., priority 1999, dated 2003) come the findings set out here.

As a reminder, the Ki is the dissociation constant of the complex between target and ligand, obtained from inhibition or displacement. Read a high Ki as weaker binding. Broadly, the Cmax is the highest concentration seen after dosing. The inhibition is the percentage by which the read-out fell short of the control. Broadly, the AUC(0-t) is exposure summed from dosing to a finite time, without extrapolation to infinity. What is called IC50 is the concentration needed to halve the response being measured.

Like-named read-outs stand apart in the source and are kept apart here.

In data set [1] the target is unphosphorylated VEGF-R2Δ50 (FLVK) (Homo sapiens, UniProt P35968, DEL940-989/E990V). In words: VEGF-R2 coupled spectrophotometric assay, unphosphorylated VEGF-R2Δ50 (FLVK). The conditions noted are these: for Ki: FLVK Ki, Table 1; for inhibition at 0.05 µM: read-out: FLVK % inhibition.
A short description of data set [2]: Determination of inhibitor concentration in mouse plasma after intraperitoneal and oral dosing. The data set is classed as in vivo. The procedure: Blood collection was via ocular bleed at 0.5, 1, 4 hr with the final time point, 7 hour, via intracardiac puncture. The blood was centrifuged to collect plasma, which was then stored at −80° C. until analysis. Samples were prepared for analysis using an internal standard and sodium hydroxide. After vortexing, ethyl acetate was added and mixed for 15-20 minutes at ambient temperature. […] The samples were then analyzed via HPLC or LC-MS. Compound levels were quantitated by generating a standard curve of known compound concentration in mouse plasma.

The subject of data set [3] is human umbilical vein endothelial cells (HUVEC). In words: HUVEC proliferation assay (VEGF-stimulated, MTT). As to conditions: Homo sapiens, HUVEC, + albumin; read-out: HUVEC + albumin IC50. The data set is classed as cell-based.
Setting [4] is: IP, 25 mg/kg, vehicle PEG400:H2O pH 2.3 30:70.
Where [5] appears, read: PO, 25 mg/kg, vehicle PEG400:H2O pH 2.3 30:70.
Setting [6] is: female, IP, 25 mg/kg, vehicle PEG400:H2O pH 2.3 30:70, read-out: Cmin (7 hr conc.).
[7] abbreviates: PO, 50 mg/kg, vehicle PEG400:H2O pH 2.3 30:70.
Setting [8] is: female, PO, 50 mg/kg, vehicle PEG400:H2O pH 2.3 30:70, read-out: Cmin (7 hr conc.).
Where [9] appears, read: IP, 25 mg/kg, vehicle PEG400:H2O pH 2.3 60:40.
Setting [10] is: PO, 50 mg/kg, vehicle PEG400:H2O pH 2.3 60:40.
Setting [11] is: female, IP, 25 mg/kg, vehicle PEG400:H2O pH 2.3 60:40, read-out: Cmin (7 hr conc.).
[12] abbreviates: female, PO, 50 mg/kg, vehicle PEG400:H2O pH 2.3 60:40, read-out: Cmin (7 hr conc.).

unphosphorylated VEGF-R2Δ50 (FLVK), sequence (P35968 with tags, fused parts or gaps DEL940-989/E990V limits assumed): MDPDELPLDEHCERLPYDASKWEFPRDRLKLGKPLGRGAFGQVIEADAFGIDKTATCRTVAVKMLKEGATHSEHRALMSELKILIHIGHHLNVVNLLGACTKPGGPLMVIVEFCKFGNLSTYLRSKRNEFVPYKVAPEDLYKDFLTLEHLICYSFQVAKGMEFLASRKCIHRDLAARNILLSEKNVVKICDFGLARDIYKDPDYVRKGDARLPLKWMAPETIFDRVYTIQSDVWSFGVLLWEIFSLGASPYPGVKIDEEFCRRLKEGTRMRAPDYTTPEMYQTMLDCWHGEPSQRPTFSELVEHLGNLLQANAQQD

Compound `CN(c1cccc(NC(=O)OCc2ccccc2)c1)c1ccc2c(/C=C/c3ccccc3)n[nH]c2c1` [Example 12(c), {3-[Methyl-(3-styryl-1H-indazol-6-yl)-amino]-phenyl}-carbamic Acid Benzyl Ester] displayed a Ki in data set [1] of 1.6 nM.
Turning to `O=C(NNC(=O)c1ccccc1Sc1ccc2c(/C=C/c3ccccn3)n[nH]c2c1)c1cccs1` [Example 35(m), 6-[2-((Thien-2-ylhydrazido)carbonyl)phenylsulfanyl]-3-E-[2-(pyridin-2-yl)ethenyl]-1H-indazole], in data set [2] (setting [4]), the AUClast is 226 ng·h/mL and the “plasma half-life (T1/2)” value amounted to 4.0 h. Also, in data set [2] (setting [5]), the AUClast came out at 10 ng·h/mL and the Cmax worked out at 7 ng/mL. For the same compound, in data set [2] (setting [6]), the concentration at 7 h is 17 ng/mL. Moreover, the concentration at 7 h in data set [2] (female, PO, 25 mg/kg, vehicle PEG400:H2O pH 2.3 30:70, read-out: Cmin (7 hr conc.)) was 0 ng/mL. The compound further yielded a Ki in data set [1] of 0.04 nM.
In the case of `NNC(=O)c1ccccc1Sc1ccc2c(/C=C/c3ccccn3)n[nH]c2c1` [Example 35(ii), 6-[2-(Aminocarbamoyl)phenylsulfanyl]-3-E-[2-(pyridin-2-yl)ethenyl]-1H-indazole], the inhibition at 0.05 µM in data set [1] was 44%.
In the case of `Cc1cc(C(=O)Nc2cccc(Oc3ccc4c(/C=C/c5ccccn5)n[nH]c4c3)c2)nn1C` [Example 31(b), 6-[3-((1,5-Dimethyl-1H-pyrazol-3-yl)carboxamido)phenoxy]-3-E-[2-(pyridin-2-yl)ethenyl]-1H-indazole], the figures for the “plasma half-life (T1/2)” value in data set [2] (setting [4]) and in data set [2] (setting [7]) were 1.7 h and 1.0 h, respectively. Besides, in data set [2] (setting [7]), the AUClast came to 2071 ng·h/mL. This compound registered an AUC(0-t) in data set [2] (female, IP, 25 mg/kg, vehicle PEG400:H2O pH 2.3 30:70) above 7040 ng·h/mL. The concentration at 7 h in data set [2] (setting [6]) came out at 177 ng/mL; in data set [2] (setting [8]), 15 ng/mL. The compound further gave a Ki in data set [1] below 0.1 nM.
In the case of `CN(c1ccccc1)c1ccc2c(/C=C/c3ccccc3)n[nH]c2c1` [Example 14, Methyl-phenyl-(3-styryl-1H-indazol-6-yl)-amine], in data set [1], the Ki came out at 15 nM.
Turning to `CN(c1cccc(NC(=O)c2cccc(C(F)(F)F)c2)c1)c1ccc2c(/C=C/c3ccc4c(c3)OCO4)n[nH]c2c1` [Example 16(d), N-(3-{[3-(2-Benzo[1,3]dioxol-5-yl-vinyl)-1H-indazol-6-yl]-methyl-amino}-phenyl)-3-trifluoromethyl-benzamide], the Ki in data set [1] stood at 0.43 nM.
With `Nc1ccc(CNC(=O)c2ccccc2Sc2ccc3c(/C=C/c4ccccn4)n[nH]c3c2)cc1` [Example 35(l)], the inhibition at 0.05 µM in data set [1] turned out to be 90%.
With `Nc1cccc(C(=O)c2ccc3c(/C=C/c4ccccc4)n[nH]c3c2)c1` [Example 18, (3-Amino-phenyl)-(3-styryl-1H-indazol-6-yl)-methanone], the Ki in data set [1] is 12.5 nM.
Same read-out and setting: with `O=C(c1cccc(NC(=O)c2cc(Cl)ccn2)c1)c1ccc2c(/C=C/c3ccccc3)n[nH]c2c1` [Example 19(n), 6-[3-(4-Chloropyridin-2-ylcarboxamido)benzoyl]-3-E-styryl-1H-indazole] the figure was 0.54 nM.
As to `O=C(Nc1cccc(C(=O)c2ccc3c(/C=C/c4ccccn4)n[nH]c3c2)c1)c1ccncc1` [Example 41(b), 6-[3-(Pyridin-4-ylcarboxamido)benzoyl]-3-E-[2-(pyridin-2-yl)ethenyl]-1H-indazole], the “plasma half-life (T1/2)” value in data set [2] (setting [9]) turned out to be 4.7 h; in data set [2] (setting [10]), 1.1 h. This compound displayed an AUClast in data set [2] (setting [10]) of 759 ng·h/mL. In data set [2] (female, IP, 25 mg/kg, vehicle PEG400:H2O pH 2.3 60:40), this compound displayed an AUC(0-t) above 5870 ng·h/mL. Besides, in data set [2] (female, IP, 25 mg/kg, vehicle PEG400:H2O pH 2.3 60:40, read-out: Cmax), the Cmax is above 1000 ng/mL. The concentration at 7 h in data set [2] (setting [11]) stood at 412 ng/mL; in data set [2] (setting [12]) it was 6 ng/mL. Moreover, affinity in data set [1] was put at a Ki of 0.26 nM.
Regarding `C=C(c1cccc(N)c1)c1ccc2c(/C=C/c3ccccc3)n[nH]c2c1` [Example 21, 6-(1-(3-Aminophenyl)-vinyl)-3-styryl-1H-indazole], the Ki in data set [1] amounted to 4.6 nM.
On the same count and under the same terms, with `O=C(c1cccc(NC(=O)C2CC2)c1)c1ccc2c(/C=C/c3ccccn3)n[nH]c2c1` [Example 41(k), 6-[3-(Cyclopropylcarboxanido)benzoyl]-3-E-[2-(pyridin-2-yl)ethenyl]-1H-indazole] the figure was 2.95 nM.
In data set [1], `CCn1nc(C)cc1C(=O)Nc1cccc(Oc2ccc3c(/C=C/c4c[nH]cn4)n[nH]c3c2)c1` [Example 32(b), 6-[3-((1-Ethyl-3-methyl-1H-pyrazol-5-yl)carboxamido)phenoxy]-3-E-[2-(1H-imidazol-4-yl)ethenyl]-1H-indazole] showed a Ki of 0.08 nM.
Consider `Cn1nc(C(C)(C)C)cc1C(=O)Nc1cccc(C(=O)c2ccc3c(/C=C/c4ccccn4)n[nH]c3c2)c1` [Example 41(n), 6-[3-((3-t-Butyl-1-methyl-1H-pyrazol-5-yl)carboxamido)benzoyl]-3-E-[2-(pyridin-2-yl)ethenyl]-1H-indazole], for which the results for the AUClast in data set [2] (setting [4]) and in data set [2] (setting [7]) were 9408 ng·h/mL and 9066 ng·h/mL, respectively. Besides, the Cmax amounted to 1976 ng/mL in data set [2] (setting [4]) and 2245 ng/mL in data set [2] (setting [7]). The “plasma half-life (T1/2)” value in data set [2] (setting [4]) turned out to be 3.2 h; in data set [2] (setting [7]), 1.9 h. Further, the concentration at 7 h in data set [2] (setting [6]) is 465 ng/mL; in data set [2] (setting [8]) it was 253 ng/mL. In data set [1], this compound registered a Ki of 0.2 nM.
For the compound `Cc1nc(/C=C/c2n[nH]c3cc(C(=O)c4cccc(NC(=O)c5ccccc5)c4)ccc23)cs1` [Example 42(c), 6-(3-Benzanidobenzoyl)-3-E-[2-(2-methylthiazol-4-yl)ethenyl]-1H-indazole], in data set [3], the IC50 lay within 1 to 3 nM. Besides, the inhibition at 0.05 µM in data set [1] amounted to 95%.
`Cc1cnc(C(=O)Nc2cccc(Oc3ccc4c(/C=C/c5ccccc5)n[nH]c4c3)c2)s1` [Example 5(a), 5-Methyl-thiazole-2-carboxylic Acid {3-(3-Styryl-1H-indazol-6-yloxy)-phenyl]-amide] returned a Ki in data set [1] of 0.03 nM.
`COCOc1ccc(Oc2ccc3c(/C=C/c4ccccc4)n[nH]c3c2)cc1` [Example 8(b), 3-(E-Styryl)-6-[4-(methoxymethoxy)phenoxy]-1H-indazole]: the inhibition constant (Ki) in data set [1] was 72 nM.
On to `O=C(Nc1cccc(Oc2ccc3c(/C=C/c4ccccc4)n[nH]c3c2)c1)c1cccc2[nH]ccc12` [Example 30(d), 6-[3-(indol-4-ylcarboxamido)phenoxy]-3-E-stryrylindazole], for which, in data set [1], the Ki turned out to be 0.37 nM.
On to `CC(C)(C)c1ccc(C(=O)Nc2cccc(C(=O)c3ccc4c(/C=C/c5ccccn5)n[nH]c4c3)c2)cc1` [Example 41(s), 6-[3-(4-t-Butylbenzanido)benzoyl]-3-E-[2-(pyridin-2-yl)ethenyl]-1H-indazole], for which the Ki in data set [1] turned out to be 0.23 nM.
As to `C=C(c1cccc(NC(=O)OCc2ccccc2)c1)c1ccc2c(/C=C/c3ccccc3)n[nH]c2c1` [Example 22(c)], in data set [1], the Ki was 0.64 nM.
Turning to `COc1cc(-c2ccc3c(-c4cc5ccccc5[nH]4)n[nH]c3c2)ccc1O` [Example 2(d), 3-(1H-Indol-2-yl)-6-(3-methoxy-4-hydroxy-phenyl)-1H-indazole], the affinity in data set [1] corresponds to a Ki of 3.7 nM.
In turn, `CNC(C(=O)Nc1cccc(C(=O)c2ccc3c(/C=C/c4ccccc4)n[nH]c3c2)c1)c1ccccc1` (stereo not shown) [Example 19(p), 6-[3-(2-Methylamino-2-phenylacetamido)benzoyl]-3-E-styryl-1H-indazole] displayed a Ki in data set [1] of 1.5 nM.
Regarding `O=C(Nc1cccc(C(=O)c2ccc3c(-c4nc5cccnc5[nH]4)n[nH]c3c2)c1)c1ccccc1` [Example 42(d), 6-(3-Benzaniidobenzoyl)-3-(3H-imidazo[4,5-b]pyridin-2-yl)-1H-indazole], the AUClast was 1774 ng·h/mL in data set [2] (setting [9]) and 46 ng·h/mL in data set [2] (setting [10]). In addition, the entries for the “plasma half-life (T1/2)” value in data set [2] (setting [9]) and in data set [2] (setting [10]) were 1.4 h and “BLQ”, respectively. Also, the values for the concentration at 7 h in data set [2] (setting [11]) and in data set [2] (setting [12]) were 31 ng/mL and 18 ng/mL, respectively. The Ki in data set [1] was 1.7 nM.
As for `Oc1ccc(Oc2ccc3c(/C=C/c4ccccc4)n[nH]c3c2)cc1` [Example 9(b), 3-(E-Styryl)-6-[4-hydroxyphenoxy]-1H-indazole], the Ki in data set [1] is 24 nM.
The same measure, in the same setting: the figure for `CCn1nc(C)cc1C(=O)Nc1cccc(Oc2ccc3c(/C=C/c4ccccc4)n[nH]c3c2)c1` [Example 30(e), 6-[3-((1-Ethyl-3-methyl-1H-pyrazol-5-yl)carboxamido)phenoxy]-3-E-stryrylindazole] is 0.37 nM.
As for `O=C(NOCc1ccccc1)c1ccccc1Sc1ccc2c(/C=C/c3ccccn3)n[nH]c2c1` [Example 35(i), 6-[2-(Benzyloxycarbamoyl)phenylsulfanyl]-3-E-[2-(pyridin-2-yl)ethenyl]-1H-indazole], in data set [3], the IC50 is 4.7 nM. Further, the inhibition at 0.05 µM in data set [1] was determined as 100%.
